Test results published in publication doi:10.1101/2020.10.05.326645v1 (biorxiv, 2020).

What was measured:
HhTAR1 [1] = molecular target: T1, HhTAR1 (Halyomorpha halys, UniProt A0A8A6C5M4); format: cell-based
T1 sequence (A0A8A6C5M4 1-448): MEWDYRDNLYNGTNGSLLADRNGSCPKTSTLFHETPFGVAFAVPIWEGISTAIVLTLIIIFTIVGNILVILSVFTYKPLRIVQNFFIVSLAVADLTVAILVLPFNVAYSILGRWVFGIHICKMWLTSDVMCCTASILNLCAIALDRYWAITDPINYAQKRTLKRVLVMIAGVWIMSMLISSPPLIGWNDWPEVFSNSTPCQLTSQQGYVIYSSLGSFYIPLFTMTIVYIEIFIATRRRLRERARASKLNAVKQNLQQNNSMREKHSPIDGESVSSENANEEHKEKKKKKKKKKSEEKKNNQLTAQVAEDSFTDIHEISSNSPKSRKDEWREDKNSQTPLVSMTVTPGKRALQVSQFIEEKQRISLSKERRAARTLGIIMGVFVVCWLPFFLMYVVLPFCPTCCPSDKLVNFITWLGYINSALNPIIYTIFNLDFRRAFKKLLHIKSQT

HhTAR1 [2] = molecular target: T1, HhTAR1; assay: Fluo-4 calcium mobilization, FlexStation II, HEK […] cells; format: cell-based

| Kb (HhTAR1 [1]) [µM] | Compound | EC50 (HhTAR1 [2]) [µM] |
| --- | --- | --- |
| 0.0055 | COC(=O)[C@@H]1[C@H]2C[C@H]3c4[nH]c5ccccc5c4CCN3C[C@@H]2CC[C@@H]1O [yohimbine] | – |
| – | NCCc1ccc(O)cc1 [tyramine] | 1.02 |
